No end group written: not given here.
Columns and labels:
[1] = system: RSV F protein; settings: ref [14], cited from earlier work
[2] = system: RSV (A2 strain) in HEp-2 cells
[3] = system: RSV F construct FN155 (F residues 155–550); settings: yeast two-hybrid assay; FN155 construct encoding F residues 155–550; ref [14]; cited from earlier work
[4] = system: RSV F (HEp-2 cells expressing RSV F, G and SH); type: cell-based, respiratory syncytial virus

**Q.** For “RhoA amino acids 67–110: F binding domain of RhoA (amino acids 67–110)”, which “binding to RSV F amino acids 146–155” value ([1]; RhoA amino acids 67–110) is on record?
**A.** bind

**Q.** Which RSV-induced syncytium formation ([2]; peptide incubated 1 h on ice with RSV, 5 and 10 μg/ml, HEp-2 cells, 3 d) does the source give for DRLRPLSYPDTDVILMCFS [RhoA67-85] here?
**A.** did not block

**Q.** Which results are given for “RhoA: RhoA, a small GTPase of the Ras superfamily”?
**A.** binding to RSV F construct expressing the heptad repeat region [3]: not bind; binding to RSV F protein [1]: binds

**Q.** For TDVILMCFSIDSPDSLENI [RhoA77-95], which IC50 ([2]; 1 h) is on record?
**A.** 250 nM

**Q.** With DSPDSLENIPEKWTPEVKH [RhoA87-105] as the substance, how does the “cell-to-cell fusion induced by RSV F” value [4] read?
**A.** not inhibited

**Q.** And the plaque formation ([2]; pretreatment of virus inoculum, 1 h on ice, peptide 5 and 10 μg/ml, HEp-2 cells, 3 d, relative to media-treated controls)?
**A.** did not have any effect

Reference: publication PMC7095870 (Nature Medicine, 2000)
